Experimental data: patent publication US10806785B2, “Immunomodulator compounds and methods of use” (Incyte Corporation, priority 2016, dated 2020)

Biological target: PD-1/PD-L1 (Homo sapiens (Human), UniProt Q9NZQ7)
Test: PD-1/PD-L1 binding assay (HTRF)
How it was run: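 HTRF read-out (665/620 nm) after 60 min at 25 °C with 1 nM Eu anti-human IgG and 20 nM APC anti-His. Beforehand, inhibitors were preincubated 40 min with Fc-PD-1 (25-167, […] as listed) and His-PD-L1 (19-238, 10 nM) in PBS pH 7.4 with Tween-20, BSA, 1% DMSO; IC50 from log-concentration curve.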

Chain of PD-1/PD-L1 (Q9NZQ7 19-238): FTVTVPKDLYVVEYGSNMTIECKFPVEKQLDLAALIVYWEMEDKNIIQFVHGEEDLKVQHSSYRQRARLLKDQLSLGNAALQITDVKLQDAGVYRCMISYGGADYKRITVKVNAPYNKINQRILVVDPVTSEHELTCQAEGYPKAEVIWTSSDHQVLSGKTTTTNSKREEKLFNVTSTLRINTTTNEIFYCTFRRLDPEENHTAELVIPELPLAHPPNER

| IC50 [nM] | SMILES |
| --- | --- |
| 10 to 100 | Cn1c(C(=O)Nc2cccc(-c3cccc(NC(=O)c4nc5c(n4C)CCN(C4CCOCC4)C5)c3Cl)c2Cl)nc2c1CCN(CC13CCC(C(=O)O)(CC1)C3)C2 [Compound 179, 4-((2-(2,2′-dichloro-3′-(1-methyl-5-(tetrahydro-2H-pyran-4-yl)-4,5,6,7-tetrahydro-1H-imidazo[4,5-c]pyridine-2-carboxamido)biphenyl-3-ylcarbamoyl)-1-methyl-6,7-dihydro-1H-imidazo[4,5-c]pyridin-5(4H)-yl)methyl)bicyclo[2.2.1]heptane-1-carboxylic acid] |
| ≤ 10 | Cc1c(NC(=O)c2nc3c(n2C)CCN(C2CCN(S(C)(=O)=O)CC2)C3)cccc1-c1cccc(NC(=O)c2nc3c(n2C)CCN(C)C3)c1Cl [Example 28, N-(2-chloro-2′-methyl-3′-(1-methyl-5-(1-(methylsulfonyl)piperidin-4-yl)-4,5,6,7-tetrahydro-1H-imidazo[4,5-c]pyridine-2-carboxamido)biphenyl-3-yl)-1,5-dimethyl-4,5,6,7-tetrahydro-1H-imidazo[4,5-c]pyridine-2-carboxamide] |

Further lines, the compound ahead of its results:

| SMILES | IC50 [nM] |
| --- | --- |
| Cn1c(C(=O)Nc2cccc(-c3cccc(NC(=O)c4nc5c(n4C)CCN(C4CCC4)C5)c3Cl)c2Cl)nc2c1CCN(CC13CCC(C(=O)O)(CC1)C3)C2 [Compound 178, 4-((2-(2,2′-dichloro-3′-(5-cyclobutyl-1-methyl-4,5,6,7-tetrahydro-1H-imidazo[4,5-c]pyridine-2-carboxamido)biphenyl-3-ylcarbamoyl)-1-methyl-6,7-dihydro-1H-imidazo[4,5-c]pyridin-5(4H)-yl)methyl)bicyclo[2.2.1]heptane-1-carboxylic acid] | ≤ 10 |
| Cn1c(C(=O)Nc2cccc(-c3cccc(NC(=O)c4nc5c(n4C)CCN(CC46CCC(C(=O)O)(CC4)C6)C5)c3Cl)c2Cl)nc2c1CCN(CCO)C2 [Compound 180, 4-((2-(2,2′-dichloro-3′-(5-(2-hydroxyethyl)-1-methyl-4,5,6,7-tetrahydro-1H-imidazo[4,5-c]pyridine-2-carboxamido)biphenyl-3-ylcarbamoyl)-1-methyl-6,7-dihydro-1H-imidazo[4,5-c]pyridin-5(4H)-yl)methyl)bicyclo[2.2.1]heptane-1-carboxylic acid] | ≤ 10 |
| C[C@H](O)CN1CCc2c(nc(C(=O)Nc3cccc(-c4cccc(NC(=O)c5nc6c(n5C)CCN(C)C6)c4Cl)c3Cl)n2C)C1 [Example 27, (S)—N-(2,2′-dichloro-3′-(1,5-dimethyl-4,5,6,7-tetrahydro-1H-imidazo[4,5-c]pyridine-2-carboxamido)biphenyl-3-yl)-5-(2-hydroxypropyl)-1-methyl-4,5,6,7-tetrahydro-1H-imidazo[4,5-c]pyridine-2-carboxamide] | ≤ 10 |
| Cc1c(NC(=O)c2nc3c(n2C)CCN(C2CCOCC2)C3)cccc1-c1cccc(NC(=O)c2nc3c(n2C)CCN(C)C3)c1Cl [Example 29, N-(2-chloro-2′-methyl-3′-(1-methyl-5-(tetrahydro-2H-pyran-4-yl)-4,5,6,7-tetrahydro-1H-imidazo[4,5-c]pyridine-2-carboxamido)biphenyl-3-yl)-1,5-dimethyl-4,5,6,7-tetrahydro-1H-imidazo[4,5-c]pyridine-2-carboxamide] | ≤ 10 |
| Cc1c(NC(=O)c2nc3c(n2C)CCN(CC2CCOCC2)C3)cccc1-c1cccc(NC(=O)c2nc3c(n2C)CCN(C)C3)c1Cl [Example 30, N-(2-chloro-2′-methyl-3′-(1-methyl-5-((tetrahydro-2H-pyran-4-yl)methyl)-4,5,6,7-tetrahydro-1H-imidazo[4,5-c]pyridine-2-carboxamido)biphenyl-3-yl)-1,5-dimethyl-4,5,6,7-tetrahydro-1H-imidazo[4,5-c]pyridine-2-carboxamide] | ≤ 10 |
